Data set [1] has as its system human topoisomerase II. Kind of data set: Topoisomerase II-mediated DNA cleavage assay (5'-end-labeled human c-myc DNA). The class given is biochemical.
Data set [2] has as its system HOP-62. Kind of data set: NCI human cancer cell line screen (COMPARE screening), Lung HOP-62. The class given is cell-based. The source says:
(§1) Considering the diversity of cancer in terms of cell type, morphology, growth rate and other cellular characteristics, the U.S. National Cancer Institute (NCI) has developed a “disease-oriented” approach to anticancer activity screening (M. R. Boyd, in “Principle of Practice of Oncology” […]. Rosenberg (Eds.) Vol. 3, PPO Update, No. 10, 1989). This in vitro prescreening system is based on the measurement of anticancer cytotoxicity against human cancer cell line panels consisting of approximately 60 cell lines of major human cancers (including leukemia and slower growing tumor cells such as lung, colon, breast, skin, kidney, etc.) and is referred hereinafter as “COMPARE” screening. An important advantage of the new in vitro screening panels is the opportunity to facilitate identification of compounds that are selectively more cytotoxic to cells of certain types of cancers, thus increasing the ability to select compounds for further study with respect to specific diseases. The indenoisoquinolines were examined for antiproliferative activity against the human cancer cell lines in the National Cancer Institute screen (COMPARE screening), in which the activity of each compound was evaluated with approximately […] different cancer cell lines of diverse tumor origins.

Data set [3] relates to approximately 55 different cancer cell lines of diverse tumor origins. Put plainly: NCI screen mean graph midpoint over all cell lines tested. The data set is classed as cell-based, human. The conditions noted are these: for IC50: average GI50 for all cell lines tested (approximately 55), values outside test range taken as 10^-8 or 10^-4 molar, read-out: MGM (mean graph midpoint).
Text: as §1

In data set [4] the test system is DU-145. Put plainly: NCI human cancer cell line screen (COMPARE screening), Prostate DU-145. The class given is cell-based.
Text: as §1

The target of data set [5] is T1, topoisomerase I (Homo sapiens, UniProt P11387).
T1 sequence (P11387 1-765): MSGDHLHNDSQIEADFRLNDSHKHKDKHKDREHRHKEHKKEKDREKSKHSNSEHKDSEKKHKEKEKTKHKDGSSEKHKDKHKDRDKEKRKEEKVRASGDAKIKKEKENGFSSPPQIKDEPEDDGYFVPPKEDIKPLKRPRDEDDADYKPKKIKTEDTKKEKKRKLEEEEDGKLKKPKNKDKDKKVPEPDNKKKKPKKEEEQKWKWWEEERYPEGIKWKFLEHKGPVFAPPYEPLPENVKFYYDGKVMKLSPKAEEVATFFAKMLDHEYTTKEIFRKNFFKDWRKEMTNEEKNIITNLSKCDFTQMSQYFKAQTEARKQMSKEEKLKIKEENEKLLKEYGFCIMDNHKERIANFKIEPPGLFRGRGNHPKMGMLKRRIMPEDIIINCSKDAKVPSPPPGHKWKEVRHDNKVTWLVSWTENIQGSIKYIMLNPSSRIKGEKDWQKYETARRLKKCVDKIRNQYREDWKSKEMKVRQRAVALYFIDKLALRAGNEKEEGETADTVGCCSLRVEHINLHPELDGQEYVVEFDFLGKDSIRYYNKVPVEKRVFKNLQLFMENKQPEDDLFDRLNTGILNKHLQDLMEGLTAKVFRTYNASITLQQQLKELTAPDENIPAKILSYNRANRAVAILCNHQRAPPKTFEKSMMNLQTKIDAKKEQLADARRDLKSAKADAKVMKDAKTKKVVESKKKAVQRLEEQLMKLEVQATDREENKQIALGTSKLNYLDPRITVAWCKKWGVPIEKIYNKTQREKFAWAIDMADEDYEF
Kind of data set: Topoisomerase I-mediated DNA cleavage assay (3'-end-labeled 161 bp pBluescript SK(-) fragment). The data set is classed as biochemical. The conditions noted are these: relative to the activity of 1 μM camptothecin. On the procedure:
Topoisomerase I-Mediated DNA Cleavage Reactions Using 3′-End-labeled 161 BP Plasmid DNA
The 161 bp fragment from pBluescript SK(−) phagemid DNA (Stratagene, La Jolla, Calif.) was cleaved with the restriction endonuclease Pvu II and Hind III (New England Biolabs, Beverly, Mass.) in supplied NE buffer 2 (10 μL reactions) for 1 h at 37° C., separated by electrophoresis in a 1% agarose gel made in 1×TBE buffer. The 161 bp fragment was eluted from the gel slice (centrilutor by Amicon) and concentrated in a centricon 50 centrifugal concentrator (Amicon, Beverly, Mass.). Approximately 200 ng of the fragment was 3′-end-labeled at the Hind III site by fill-in reaction with [alpha-^32P]-dCTP and 0.5 mM dATP, dGTP, and dTTP, in React 2 buffer (50 mM Tris-HCl, pH 8.0, […], 50 mM NaCl) with 0.5 units of DNA polymerase I (Klenow fragment). Labeling reactions were followed by phenol-chloroform extraction and ethanol precipitation. The resulting 161 bp 3′-endlabeled DNA fragment was resuspended in water. Aliquots (approximately 50,000 dpm/reaction) were incubated with topoisomerase I at 30° C. for 15 min in the presence of the indicated drug. Reactions were terminated by adding 0.5% SDS. After ethanol precipitation, the samples were resuspended in loading buffer (80% formamide, 10 mM sodium hydroxide, 1 mM sodium EDTA, 0.1% xylene cyanol, and 0.1% bromophenol blue, pH 8.0), and separated in a denaturing gel (16% polyacrylamide, 7 M urea) run at 51° C. The gel was dried and visualized by using a Phosphoimager and ImageQuant software (Molecular Dynamics, Sunnyvale, Calif.).

The test system of data set [6] is UACC-62. Put plainly: NCI human cancer cell line screen (COMPARE screening), Melanoma UACC-62. The data set is classed as cell-based.
Text: as §1

In data set [7] the test system is OVCAR-3. Kind of data set: NCI human cancer cell line screen (COMPARE screening), Ovarian OVCAR-3. The data set is classed as cell-based.
Text: as §1

The test system of data set [8] is MDA-MB-435. Put plainly: NCI human cancer cell line screen (COMPARE screening), Breast MDA-MB-435. The class given is cell-based.
Text: as §1

Data set [9] concerns HCT-116. Kind of data set: NCI human cancer cell line screen (COMPARE screening), Colon HCT-116. The class given is cell-based.
Text: as §1

For data set [10], the system named is SF-539. Kind of data set: NCI human cancer cell line screen (COMPARE screening), CNS SF-539. The data set is classed as cell-based.
Text: as §1

Data set [11] has as its system SN12C. Kind of data set: NCI human cancer cell line screen (COMPARE screening), Renal SN12C. The class given is cell-based.
Text: as §1

Setting [12] is: Homo sapiens, SF-539, concentration causing 50% growth inhibition, read-out: Cytotoxicity (G150 in μM) CNS SF-539.
Setting [13] is: Homo sapiens, HOP-62, concentration causing 50% growth inhibition, read-out: Cytotoxicity (G150 in μM) Lung HOP-62.
[14] abbreviates: Homo sapiens, SN12C, concentration causing 50% growth inhibition, read-out: Cytotoxicity (G150 in μM) Renal SN12C.
[15] abbreviates: Homo sapiens, DU-145, concentration causing 50% growth inhibition, read-out: Cytotoxicity (G150 in μM) Prostate DU-145.
[16] abbreviates: Homo sapiens, UACC-62, concentration causing 50% growth inhibition, read-out: Cytotoxicity (G150 in μM) Melanoma UACC-62.
Where [17] appears, read: Homo sapiens, OVCAR-3, concentration causing 50% growth inhibition, read-out: Cytotoxicity (G150 in μM) Ovarian OVCAR-3.
[18] abbreviates: Homo sapiens, MDA-MB-435, concentration causing 50% growth inhibition, read-out: Cytotoxicity (G150 in μM) Breast MDA-MB-435.
[19] abbreviates: Homo sapiens, HCT-116, concentration causing 50% growth inhibition, read-out: Cytotoxicity (G150 in μM) Colon HCT-116.

Where two headings read alike, the source gives them in different places.

Regarding `CCN1C(=O)c2cc(OC)c(OC)cc2[C@H]2C(=O)c3cc4c(cc3[C@H]21)OCO4` (relative stereo) [Compound 21, cis-6-Ethyl-5,6,12,13-tetrahydro-2,3-dimethoxy-5,11-dioxo-8,9-(methylene-dioxy)-11H-indeno[1,2-c]isoquinoline], the “induction of topoisomerase II cleavage complexes” value in data set [1] was “no effect”. For the same molecule, the IC50 was 0.29 µM in [2]; 0.81 µM in data set [3]; 0.42 µM in [4]; 0.18 µM in [6]; 0.44 µM in data set [7]; 0.45 µM in data set [8]. In data set [9], the IC50 was determined as 0.29 µM. The “cytotoxicity (MGM) relative to lead compound 1” value in [3] was “lower MGM than the lead compound 1”. Besides, the “Top 1 Cleavage” value in [5] is “± (those compounds having less than 20% of the activity of 1 μM camptothecin)”.

For the molecule `C=CCN1C(=O)c2cc(OC)c(OC)cc2[C@H]2C(=O)c3cc4c(cc3[C@H]21)OCO4` (relative stereo) [Compound 22, cis-6-Allyl-5,6,12,13-tetrahydro-2,3-dimethoxy-5,11-dioxo-8,9-(methylenedioxy)-(11H)indeno[1,2-c]isoquinoline], the “induction of topoisomerase II cleavage complexes” value in data set [1] is “no effect”. Further, the IC50 amounted to 0.36 µM in data set [2]; 0.98 µM in [3]; 0.77 µM in data set [4]; 0.38 µM in [6]; 1.7 µM in data set [7]; 1.4 µM in data set [8]. The molecule further gave an IC50 in [9] of 0.34 µM. In data set [3], the “cytotoxicity (MGM) relative to lead compound 1” value is listed as “lower MGM than the lead compound 1”. Further, in [5], the “Top 1 Cleavage” value is on record as 0.

`O=C1c2ccccc2-c2oc(=O)c3ccccc3c21` [Compound 2, benz[d]indeno[1,2-b]pyran-5,11-dione]: the IC50 in data set [10] (setting [12]) is over 100 µM; in data set [2] (setting [13]), over 100 µM; in data set [3] (Homo sapiens), 85 µM; in [11] (setting [14]), over 100 µM; in data set [4] (setting [15]), over 100 µM; in data set [6] (setting [16]) it was over 100 µM. Also, the IC50 in data set [7] (setting [17]), in data set [8] (setting [18]) and in data set [9] (setting [19]) was over 100 µM each time. In addition, the “Top 1 Cleavage” value in data set [5] turned out to be 0.

As for `O=C1c2ccccc2-c2c1c1ccccc1c(=O)n2C1CC1` [Compound 5, 6-Cyclopropyl-5,6-dihydro-5,11-diketo-11H-indeno[1,2-c]isoquinoline], the IC50 in [10] (setting [12]) was over 100 µM; in data set [2] (setting [13]), 61 µM; in data set [3] (Homo sapiens), 98 µM; in data set [11] (setting [14]), over 100 µM; in data set [4] (setting [15]), over 100 µM; in [6] (setting [16]), 84 µM. Further, the IC50 in data set [7] (setting [17]), in [8] (setting [18]) and in data set [9] (setting [19]) was over 100 µM in each case. Moreover, the “Top 1 Cleavage” value in [5] came to 0.

With `COc1ccc(Cn2c3c(c4cc(OC)c(OC)cc4c2=O)C(=O)c2cc4c(cc2-3)OCO4)cc1` [Compound 13f, 6-(p-Anisyl)-2,3-dimethoxy-5,6-dihydro-5,11-diketo-8,9-methylenedioxy-11H-indeno[1,2-c]isoquinoline], the IC50 in data set [10] (setting [12]) is over 100 µM; in data set [2] (setting [13]) it was 20 µM; in data set [3] (Homo sapiens), 70 µM; in data set [11] (setting [14]), over 100 µM; in data set [4] (setting [15]) it was 76 µM; in data set [6] (setting [16]) it was over 100 µM. Also, the IC50 in [7] (setting [17]), in data set [8] (setting [18]) and in data set [9] (setting [19]) was over 100 µM each time. In [5], the “Top 1 Cleavage” value came out at 0.

In the case of `Cn1c2c(c3ccccc3c1=O)C(=O)c1cc(OCc3ccccc3)c(OCc3ccccc3)cc1-2` [Compound 13g, 8,9-Dibenzyloxy-5,6-dihydro-5,11-diketo-6-methyl-11H-indeno[1,2-c]isoquinoline], the IC50 was over 100 µM in [10] (setting [12]); 72 µM in data set [2] (setting [13]); 82 µM in data set [3] (Homo sapiens); 88 µM in data set [11] (setting [14]); over 100 µM in data set [4] (setting [15]); 93 µM in data set [6] (setting [16]). The IC50 in data set [7] (setting [17]), in data set [8] (setting [18]) and in data set [9] (setting [19]) was over 100 µM in each case. Further, the “Top 1 Cleavage” value in [5] is reported as 0.

Take `COc1cc2c3c(n(C)c(=O)c2cc1OC)-c1cc(OCc2ccccc2)c(OCc2ccccc2)cc1C3=O` [Compound 13h, 8,9-Dibenzyloxy-5,6-dihydro-5,11-diketo-6-methyl-2,3-dimethoxy-11H-indeno[1,2-c]isoquinoline]: the IC50 in data set [10] (setting [12]) was 39 µM; in [2] (setting [13]) it was 46 µM; in data set [3] (Homo sapiens) it was 72 µM; in data set [11] (setting [14]), over 100 µM; in data set [4] (setting [15]), over 100 µM; in [6] (setting [16]), over 100 µM. Also, the IC50 in data set [7] (setting [17]) is 58 µM; in data set [8] (setting [18]) it was over 100 µM; in data set [9] (setting [19]), 80 µM. Also, the “Top 1 Cleavage” value in data set [5] turned out to be 0.

As for `COc1cc2c3c(n(C)c(=O)c2cc1OC)-c1cc(OC)c(OC)c(OC)c1C3=O` [Compound 13i, 5,6-Dihydro-5,11-diketo-6methyl-2,3,8,9,10-pentamethoxy-11H-indeno[1,c]isoquinoline], the IC50 in [10] was over 100 µM; in data set [2], over 100 µM; in data set [3], 95 µM; in data set [11], over 100 µM; in data set [4], over 100 µM; in data set [6], 55 µM. Moreover, the IC50 in data set [7], in data set [8] and in [9] was over 100 µM throughout. The “Top 1 Cleavage” value in data set [5] came to 0.

The values above are taken from US6509344B1, “Indenoisoquinolines as antineoplastic agents” (The United States of America as represented by the …, priority 1998, dated 2003).
